Assay results published in patent publication US20100210597A1, “C21-Deoxy Ansamycin Derivatives as Antitumor Agents” (priority 2007, published 2010).
Several values for one entry are separate records, joined by “and”; a condition that tells them apart may be missing. Identical values can stand only once.

Legend:
[1] = In vivo pharmacokinetic assay in mice; parameters: species or system mouse; conditions: female CD-1 mice
Experimental: The test compound was prepared directly in endotoxin free water. A single dose of 10 mg/kg p.o. or 3 mg/kg i.v. was administered to groups of female CD1 mice (3 mice for each compound per time point). Dose volumes were 10 mL/kg for both oral and intravenous administration. At 4 minutes and 0.25, 0.5, 1, 2, 4, 8, 24 hours groups were sacrificed and plasma was collected from each mouse for further analysis. For oral dosing, a single dose of Test Article was administered via oral gavage to the mice. For intravenous dosing, a single dose of Test article was administered intravenously to mice via the tail veins.
The concentration of the relevant compounds in the plasma samples was determined by HPLC with MS detection.
• Mass spectrometer: API 3200 Q Trap triple quadruple mass spectrometer • Liquid chromatography: Agilent 1200/PAL HTC Autosampler • Ionization Mode: Electrospray (may be changed depending on the TA) • Monitoring: Multiple Reaction Monitoring • LC chromatography BetaBastic-8, 50×2.1 mm, 5 μm (may separation: be changed depending on the TA)
Based on the peak area ratios of test article to an internal standard, 17-Methoxyethylamino Geldanamycin (Schnur et al., 1995), concentrations of an unknown sample were obtained by a calibration curve.
Test plasma sample (0.05 ml), analyte free mouse whole serum (0.05 ml), internal standard solution (0.1 ml of 10 mg/mL 17-Methoxyethylamino geldanamycin (Schnur et al., 1995) dissolved in methanol) and acetonitrile (0.5 ml) were pipetted into a 2-mL polypropylene tube and the contents of the tubes were mixed for a minimum of 5 minutes (Vibrax mixer). The tubes were then centrifuged in a microfuge for a minimum of 2 minutes at 12,000 rpm. 0.1 ml of the solvent layer was transferred into a 2-mL polypropylene tube containing 1 mL acid diluent (0.1% formic acid). The tubes were then mixed for a minimum of 5 minutes (Vibrax mixer) and then centrifuged at approximately 3500 rpm for 5 minutes. The extracts were transferred to auto-sampler vials and placed in the auto sampler tray which was set at ambient temperature. The auto-sampler was programmed to inject a 0.005 ml aliquot of each extract onto the analytical column.
In vivo confirmation of the cleavage of 20 to the parent molecule, 17, was carried out as described in the general methods.
Female CD-1 mice were given single doses of 20, either intravenously at 3 mg/kg, or orally at 10 mg/kg. Plasma samples were then collected at 8 time points (0.067, 0.25, 0.5, 1, 2, 4, 8 and 24 h postdose) over a 24-h period. The amounts of 20 and 17 in the samples were then analysed. […] After iv administration, 20 was only detected up to 0.25 hours after dosing, whilst 17 was detected up to 4 hours after dosing.

CNXF 498NL = test: Monolayer proliferation assay (modified propidium iodide), CNXF 498NL; format: cell-based, human; conditions: average of 2 experiments
Experimental: (§1) In vitro evaluation of compounds for anticancer activity in a panel of human tumour cell lines in a monolayer proliferation assay was carried out at the Oncotest Testing Facility, Institute for Experimental Oncology, Oncotest GmbH, Freiburg.
(§2) The Oncotest cell lines are established from human tumor xenografts as described by Roth et al., (1999). The origin of the donor xenografts is described by Fiebig et al., (1999). Other cell lines are either obtained from the NCl (DU145, MCF-7) or purchased from DSMZ, Braunschweig, Germany.
(§3) All cell lines, unless otherwise specified, are grown at 37° C. in a humidified atmosphere (95% air, 5% CO2) in a ‘ready-mix’ medium containing RPMI 1640 medium, 10% fetal calf serum, and 0.1 mg/mL gentamicin (PAA, Cölbe, Germany).
(§4) A modified propidium iodide assay was used to assess the effects of the test compound(s) on the growth of six human tumour cell lines (Dengler et al., (1995)).
Briefly, cells are harvested from exponential phase cultures by trypsinization, counted and plated in 96 well flat-bottomed microtitre plates at a cell density dependent on the cell line (5-10.000 viable cells/well). After 24 h recovery to allow the cells to resume exponential growth, 0.010 mL of culture medium (6 control wells per plate) or culture medium containing macbecin were added to the wells. Each concentration is plated in triplicate. […] Following 4 days of continuous exposure, cell culture medium with or without test compound was replaced by 0.2 mL of an aqueous propidium iodide (P1) solution (7 mg/L). To measure the proportion of living cells, cells were permeabilized by freezing the plates. After thawing the plates, fluorescence was measured using the Cytofluor 4000 microplate reader (excitation 530 nm, emission 620 nm), giving a direct relationship to the total number of viable cells.
(§5) Growth inhibition is expressed as treated/control×100 (% T/C).
(§6) In vitro evaluation of the test compound, 20, for anticancer activity in a panel of human tumour cell lines in a monolayer proliferation assay was carried out as described in the general methods using a modified propidium iodide assay.

MCF-7 = test: Monolayer proliferation assay (modified propidium iodide), MCF-7; format: cell-based, human; conditions: average of 2 experiments
Experimental: as §1, §2, §3, §4
(§7) Briefly, cells are harvested from exponential phase cultures by trypsinization, counted and plated in 96 well flat-bottomed microtitre plates at a cell density dependent on the cell line (5-10.000 viable cells/well). After 24 h recovery to allow the cells to resume exponential growth, 0.010 mL of culture medium (6 control wells per plate) or culture medium containing macbecin were added to the wells. Each concentration is plated in triplicate. Compounds were applied in two concentrations (0.001 mM and 0.01 mM). Following 4 days of continuous exposure, cell culture medium with or without test compound was replaced by 0.2 mL of an aqueous propidium iodide (P1) solution (7 mg/L). To measure the proportion of living cells, cells were permeabilized by freezing the plates. After thawing the plates, fluorescence was measured using the Cytofluor 4000 microplate reader (excitation 530 nm, emission 620 nm), giving a direct relationship to the total number of viable cells.
as §5, §6

LXF 1121L = test: Monolayer proliferation assay (modified propidium iodide), LXF 1121L; format: cell-based, human; conditions: average of 2 experiments
Experimental: as §1, §2, §3, §4, §7, §5, §6

[2] = Aqueous solubility by direct dissolution; format: physicochemical; conditions: water, deionised water; limit not tested
Source text: It is not possible to measure the solubility of 20 and 23 by this method due to their intrinsic high aqueous solubility.

[3] = test system: panel of human tumour cell lines; test: Monolayer proliferation assay, mean across cell line panel; format: cell-based; conditions: geometric mean of all replicates across six cell lines
Experimental: as §1, §2, §3, §4
Briefly, cells are harvested from exponential phase cultures by trypsinization, counted and plated in 96 well flat-bottomed microtitre plates at a cell density dependent on the cell line (5-10.000 viable cells/well). […] After thawing the plates, fluorescence was measured using the Cytofluor 4000 microplate reader (excitation 530 nm, emission 620 nm), giving a direct relationship to the total number of viable cells.
Growth inhibition is expressed as treated/control×100 (% T/C). […]

With `CO[C@H]1C[C@H](C)Cc2cc(cc(OP(=O)(O)O)c2)NC(=O)/C(C)=C/CC[C@H](C)[C@@H](OC(N)=O)/C(C)=C/[C@H](C)[C@H]1O` [Compound 20, 4,5-dihydro-11-O-demethyl-15-demethoxy-18,21-didehydro-21-deoxomacbecin-18-phosphate] the “detected in plasma up to (time after dosing)” value ([1]; single intravenous dose of 20 at 3 mg/kg) was “up to 0.25 hours”, the “detected in plasma up to (time after dosing)” value ([1]; single oral dose of 20 at 10 mg/kg) was “not seen in the plasma” and the “Test/Control (%) at drug concentration (μg/mL)” value (“Test/Control (%)” for short) (CNXF 498NL; 0.01 μg/mL) was 99%. The “Test/Control (%)” value (CNXF 498NL; 0.1 μg/mL) was 77%, the “Test/Control (%)” value (CNXF 498NL; 1 μg/mL) was 15% and the “Test/Control (%)” value (CNXF 498NL; 10 μg/mL) was 16%. The “Test/Control (%)” value (CNXF 498NL; 100 μg/mL) was 12%, the “Test/Control (%)” value (MCF-7; MCF-7, 0.01 μg/mL) was 98% and the “Test/Control (%)” value (MCF-7; MCF-7, 0.1 μg/mL) was 38%. For the same molecule, the “Test/Control (%)” value (MCF-7; MCF-7, 1 μg/mL) was 14%, the “Test/Control (%)” value (MCF-7; MCF-7, 10 μg/mL) was 13% and the “Test/Control (%)” value (MCF-7; MCF-7, 100 μg/mL) was 9%. The “Test/Control (%)” value (LXF 1121L; 0.01 μg/mL) was 103%, the “Test/Control (%)” value (LXF 1121L; 0.1 μg/mL) was 58% and the “Test/Control (%)” value (LXF 1121L; 1 μg/mL) was 15%. For the same molecule, the “Test/Control (%)” value (LXF 1121L; 10 μg/mL) was 14%, the “Test/Control (%)” value (LXF 1121L; 100 μg/mL) was 5% and the solubility [2] was ≥ 10000 µg/mL and ≥ 17000 µM. The “average IC70 value across the cell-line panel” value [3] was 0.344 µg/mL.
